Experimental data from PMC5218480 (PLoS ONE, 2017).

Test system: MV-4-11 cells
Experiment: Gene expression microarray analysis (Affymetrix PrimeView) and GSEA
Assay type: cell-based, human
Set-up: RFU PODN (11730768_x_at) / Fold change /veh PODN (11730768_x_at) / RFU LINC00158 (11744669_a_at) / Fold change /veh LINC00158 (11744669_a_at) / RFU DUSP10 (11751237_a_at) / Fold change /veh DUSP10 (11751237_a_at) / RFU ID3 (11757404_x_at) / Fold change /veh ID3 (11757404_x_at) / RFU PLEKHG5 (11737974_s_at) / Fold change /veh PLEKHG5 (11737974_s_at) / RFU LRRC4B (11730491_at) / Fold change /veh LRRC4B (11730491_at) / RFU GIMAP4 (11747438_a_at) / Fold change /veh GIMAP4 (11747438_a_at) / RFU KRT8 (11758183_x_at) / Fold change /veh KRT8 (11758183_x_at) / RFU CNN1 (11734310_a_at) / Fold change /veh CNN1 (11734310_a_at) / RFU VPS37D (11726825_at) / Fold change /veh VPS37D (11726825_at) / RFU C10orf10 (11716522_x_at) / Fold change /veh C10orf10 (11716522_x_at) / RFU KIR2DL2 /// KIR2DL4 /// KIR2DL5A /// KIR2DL5B /// KIR2DS1 /// KIR2DS2 /// KIR2DS3 /// KIR2DS4 /// KIR3DL3 /// KIR3DL3 /// KIR3DS1 (11738374_at) / Fold change /veh KIR2DL2 /// KIR2DL4 /// KIR2DL5A /// KIR2DL5B /// KIR2DS1 /// KIR2DS2 /// KIR2DS3 /// KIR2DS4 /// KIR3DL3 /// KIR3DL3 /// KIR3DS1 (11738374_at) / RFU C1QL1 (11718748_at) / Fold change /veh C1QL1 (11718748_at) / RFU TMPRSS4 (11747572_a_at) / Fold change /veh TMPRSS4 (11747572_a_at) / RFU HAMP (11756126_x_at) / Fold change /veh HAMP (11756126_x_at) / RFU RNFT2 (11725882_a_at) / Fold change /veh RNFT2 (11725882_a_at) / RFU NR4A2 (11747474_a_at) / Fold change /veh NR4A2 (11747474_a_at) / RFU ABCC12 (11746883_a_at) / Fold change /veh ABCC12 (11746883_a_at) / RFU TMEM136 (11760407_x_at) / Fold change /veh TMEM136 (11760407_x_at) / RFU CLDN22 /// WWC2 (11732394_at) / Fold change /veh CLDN22 /// WWC2 (11732394_at) / RFU HLA-DPB1 (11760878_x_at) / Fold change /veh HLA-DPB1 (11760878_x_at) / RFU SPINT1 (11716480_a_at) / Fold change /veh SPINT1 (11716480_a_at) / RFU GAP43 (11754022_s_at) / Fold change /veh GAP43 (11754022_s_at) / RFU A4GNT (11735810_at) / Fold change /veh A4GNT (11735810_at) / RFU PRB3 (11715151_x_at) / Fold change /veh PRB3 (11715151_x_at) / RFU TUBB4B (11761932_at) / Fold change /veh TUBB4B (11761932_at) / RFU CAPN14 (11732068_a_at) / Fold change /veh CAPN14 (11732068_a_at) / RFU TMCC2 (11721928_a_at) / Fold change /veh TMCC2 (11721928_a_at) / RFU IRGQ (11745062_a_at) / Fold change /veh IRGQ (11745062_a_at) / RFU FAM174B (11720279_a_at) / Fold change /veh FAM174B (11720279_a_at) / RFU TMPRSS4 (11748680_a_at) / Fold change /veh TMPRSS4 (11748680_a_at) / RFU FAM212B (11763350_a_at) / Fold change /veh FAM212B (11763350_a_at) / RFU PLEKHG5 (11743358_a_at) / Fold change /veh PLEKHG5 (11743358_a_at) / RFU ZSCAN30 (11745921_a_at) / Fold change /veh ZSCAN30 (11745921_a_at) / RFU CMKLR1 (11741424_a_at) / Fold change /veh CMKLR1 (11741424_a_at) / RFU LOC101060620 /// MAPK8IP1 (11723275_at) / Fold change /veh LOC101060620 /// MAPK8IP1 (11723275_at) / RFU SPTSSB (11747773_x_at) / Fold change /veh SPTSSB (11747773_x_at) / RFU PRSS12 (11739890_at) / Fold change /veh PRSS12 (11739890_at) / RFU BIN1 (11741810_x_at) / Fold change /veh BIN1 (11741810_x_at) / RFU WNT11 (11732464_a_at) / Fold change /veh WNT11 (11732464_a_at) / RFU C10orf10 (11716521_a_at) / Fold change /veh C10orf10 (11716521_a_at) / RFU C5orf56 (11738089_at) / Fold change /veh C5orf56 (11738089_at) / RFU CYB561 (11721691_x_at) / Fold change /veh CYB561 (11721691_x_at) / RFU ANKRD19P (11752326_a_at) / Fold change /veh ANKRD19P (11752326_a_at) / RFU OR2T12 /// OR2T33 /// OR2T8 (11738714_s_at) / Fold change /veh OR2T12 /// OR2T33 /// OR2T8 (11738714_s_at) / RFU VCAN (11748164_a_at) / Fold change /veh VCAN (11748164_a_at) / RFU JSRP1 (11732532_at) / Fold change /veh JSRP1 (11732532_at) / RFU KRTAP10-11 (11738290_x_at) / Fold change /veh KRTAP10-11 (11738290_x_at) / RFU MYO3A (11730013_a_at) / Fold change /veh MYO3A (11730013_a_at) / RFU EBF3 (11725865_a_at) / Fold change /veh EBF3 (11725865_a_at) / RFU CAMK2N1 (11719241_x_at) / Fold change /veh CAMK2N1 (11719241_x_at) / RFU C5orf56 (11738088_a_at) / Fold change /veh C5orf56 (11738088_a_at) / RFU OLFML3 (11715873_a_at) / Fold change /veh OLFML3 (11715873_a_at) / RFU LOC100653217 /// NTM (11731650_a_at) / Fold change /veh LOC100653217 /// NTM (11731650_a_at) / RFU MAPK11 (11762145_a_at) / Fold change /veh MAPK11 (11762145_a_at) / RFU FIZ1 (11724087_x_at) / Fold change /veh FIZ1 (11724087_x_at) / RFU OASL (11726364_x_at) / Fold change /veh OASL (11726364_x_at) / RFU SOX15 (11748057_x_at) / Fold change /veh SOX15 (11748057_x_at) / RFU CD79A (11719716_a_at) / Fold change /veh CD79A (11719716_a_at) / RFU HIST1H1D (11736915_at) / Fold change /veh HIST1H1D (11736915_at) / RFU CASKIN2 (11723855_a_at) / Fold change /veh CASKIN2 (11723855_a_at) / RFU LOC730098 (11760151_x_at) / Fold change /veh LOC730098 (11760151_x_at) / RFU OR4N2 (11742367_at) / Fold change /veh OR4N2 (11742367_at) / RFU PRRT2 (11749266_a_at) / Fold change /veh PRRT2 (11749266_a_at) / RFU SNX32 (11753110_a_at) / Fold change /veh SNX32 (11753110_a_at) / RFU CDHR5 (11726645_a_at) / Fold change /veh CDHR5 (11726645_a_at) / RFU RCAN1 (11760418_a_at) / Fold change /veh RCAN1 (11760418_a_at) / RFU FAM167A (11723789_a_at) / Fold change /veh FAM167A (11723789_a_at) / RFU FAM26E (11764081_at) / Fold change /veh FAM26E (11764081_at) / RFU ISYNA1 (11749810_s_at) / Fold change /veh ISYNA1 (11749810_s_at) / RFU ACY1 (11761880_at) / Fold change /veh ACY1 (11761880_at) / RFU 11764098_at / Fold change /veh 11764098_at / RFU SAMD14 (11745864_x_at) / Fold change /veh SAMD14 (11745864_x_at) / RFU NPB (11741838_a_at) / Fold change /veh NPB (11741838_a_at) / RFU TMPRSS6 (11731388_a_at) / Fold change /veh TMPRSS6 (11731388_a_at) / RFU KRTAP10-2 (11738614_at) / Fold change /veh KRTAP10-2 (11738614_at) / RFU ARHGAP8 /// PRR5-ARHGAP8 (11727945_x_at) / Fold change /veh ARHGAP8 /// PRR5-ARHGAP8 (11727945_x_at) / RFU KRTAP5-7 /// NADSYN1 (11734609_at) / Fold change /veh KRTAP5-7 /// NADSYN1 (11734609_at) / RFU RASL12 (11751679_a_at) / Fold change /veh RASL12 (11751679_a_at) / RFU CDKN2B (11736163_a_at) / Fold change /veh CDKN2B (11736163_a_at) / RFU PRF1 (11729649_at) / Fold change /veh PRF1 (11729649_at) / RFU, ZNF638 /// ZNF638-IT1 / Fold change vs veh, ZNF638 /// ZNF638-IT1 / RFU, PANK3 / Fold change vs veh, PANK3 / RFU, SH3YL1 / Fold change vs veh, SH3YL1 / RFU, ZEB2 / Fold change vs veh, ZEB2 / RFU, NRIP1 / Fold change vs veh, NRIP1 / RFU, PTTG1IP / Fold change vs veh, PTTG1IP / RFU, CAPN2 / Fold change vs veh, CAPN2 / RFU, MED14 / Fold change vs veh, MED14 / RFU, SNORA58 / Fold change vs veh, SNORA58 / RFU, C1orf63 / Fold change vs veh, C1orf63 / RFU, LRRFIP1 / Fold change vs veh, LRRFIP1 / RFU, NDUFAF7 / Fold change vs veh, NDUFAF7 / RFU, SLC12A2 / Fold change vs veh, SLC12A2 / RFU, IBTK / Fold change vs veh, IBTK / RFU, ESF1 / Fold change vs veh, ESF1 / Fold change vs veh, TMEM50B / RFU, TAOK1 / Fold change vs veh, TAOK1 / RFU, ACBD3 / Fold change vs veh, ACBD3 / RFU, TMA16 / Fold change vs veh, TMA16 / RFU, RWDD3 / Fold change vs veh, RWDD3 / RFU, BCAT1 / Fold change vs veh, BCAT1 / RFU, EDEM3 / Fold change vs veh, EDEM3 / RFU, TMEM33 / Fold change vs veh, TMEM33 / RFU, WDR75 / Fold change vs veh, WDR75 / RFU, AHCTF1 / Fold change vs veh, AHCTF1 / RFU, TFRC / Fold change vs veh, TFRC / RFU, ZDHHC17 / Fold change vs veh, ZDHHC17 / RFU, NOM1 / Fold change vs veh, NOM1 / RFU, ARL8B / Fold change vs veh, ARL8B / RFU, ZBTB11 / Fold change vs veh, ZBTB11 / RFU, TAMM41 / Fold change vs veh, TAMM41 / RFU, KIAA1704 /// LOC100996395 / Fold change vs veh, KIAA1704 /// LOC100996395 / RFU, ING1 / Fold change vs veh, ING1 / RFU, TRMT61B / Fold change vs veh, TRMT61B / RFU, FUBP3 / Fold change vs veh, FUBP3 / RFU, TP53 / Fold change vs veh, TP53 / RFU, TNKS2 / Fold change vs veh, TNKS2 / RFU, ZFP14 / Fold change vs veh, ZFP14 / RFU, ACTR2 / Fold change vs veh, ACTR2 / RFU, PPP3R1 / Fold change vs veh, PPP3R1 / RFU, PIK3R1 / Fold change vs veh, PIK3R1 / RFU, HNRNPA1 / Fold change vs veh, HNRNPA1 / RFU, RNF170 / Fold change vs veh, RNF170 / RFU, ZNF28 / Fold change vs veh, ZNF28 / RFU, RNGTT / Fold change vs veh, RNGTT / RFU, OGT / Fold change vs veh, OGT / RFU, BRD1 / Fold change vs veh, BRD1 / RFU, MARS / Fold change vs veh, MARS / RFU, ZNF655 / Fold change vs veh, ZNF655 / RFU, FAHD1 / Fold change vs veh, FAHD1 / RFU, BDP1 / Fold change vs veh, BDP1 / RFU, LRRCC1 / Fold change vs veh, LRRCC1 / RFU, ARID1A / Fold change vs veh, ARID1A / RFU, ZNF146 / Fold change vs veh, ZNF146 / RFU, ZNF330 / Fold change vs veh, ZNF330 / RFU, GPN3 / Fold change vs veh, GPN3 / RFU, C9orf123 / Fold change vs veh, C9orf123 / RFU, N4BP2L2 / Fold change vs veh, N4BP2L2 / RFU, ARFIP1 / Fold change vs veh, ARFIP1 / RFU, FAM179B / Fold change vs veh, FAM179B / RFU, BCL10 / Fold change vs veh, BCL10 / RFU, UHRF1BP1L / Fold change vs veh, UHRF1BP1L / RFU, BET1 / Fold change vs veh, BET1 / RFU, CNOT2 / Fold change vs veh, CNOT2 / RFU, ZNF268 / Fold change vs veh, ZNF268 / Fold change vs veh, ZNF507 / RFU, DGCR2 / Fold change vs veh, DGCR2 / RFU, WDSUB1 / Fold change vs veh, WDSUB1 / Fold change vs veh, HSP90B1 /// MIR3652 / RFU, ADSS / Fold change vs veh, ADSS / RFU, GK / Fold change vs veh, GK / RFU, ZNF148 / Fold change vs veh, ZNF148 / RFU, TAF9 / Fold change vs veh, TAF9 / RFU, SLC1A5 / Fold change vs veh, SLC1A5 / RFU, SLMO2 / Fold change vs veh, SLMO2 / RFU, ABCC4 / Fold change vs veh, ABCC4 / RFU, LOC101060439 /// RAP1B / Fold change vs veh, LOC101060439 /// RAP1B / RFU, RFX7 / Fold change vs veh, RFX7 / RFU, GTPBP10 / Fold change vs veh, GTPBP10 / RFU, CNEP1R1 / Fold change vs veh, CNEP1R1 / RFU, BIVM-ERCC5 /// ERCC5 / Fold change vs veh, BIVM-ERCC5 /// ERCC5 / RFU, ILF3 / Fold change vs veh, ILF3 / RFU 11762660_at / Fold change /veh 11762660_at / RFU VCAN (11757783_s_at) / Fold change /veh VCAN (11757783_s_at) / RFU DDX43 (11728927_at) / Fold change /veh DDX43 (11728927_at) / RFU KRT8 (11758188_x_at) / Fold change /veh KRT8 (11758188_x_at) / RFU NKD1 (11759106_at) / Fold change /veh NKD1 (11759106_at) / RFU SRD5A1 (11742802_a_at) / Fold change /veh SRD5A1 (11742802_a_at) / RFU TPSAB1 /// TPSB2 (11721975_s_at) / Fold change /veh TPSAB1 /// TPSB2 (11721975_s_at) / RFU GSTM3 (11746129_a_at) / Fold change /veh GSTM3 (11746129_a_at) / RFU IL23R (11737362_x_at) / Fold change /veh IL23R (11737362_x_at) / RFU TMEM51 (11727254_a_at) / Fold change /veh TMEM51 (11727254_a_at) / RFU PIWIL2 (11732686_x_at) / Fold change /veh PIWIL2 (11732686_x_at) / RFU ORM1 (11744905_x_at) / Fold change /veh ORM1 (11744905_x_at) / RFU CCDC152 (11743942_at) / Fold change /veh CCDC152 (11743942_at) / RFU ECM1 (11717891_a_at) / Fold change /veh ECM1 (11717891_a_at) / RFU IL23R (11748794_a_at) / Fold change /veh IL23R (11748794_a_at) / RFU TNFAIP8L3 (11732012_x_at) / Fold change /veh TNFAIP8L3 (11732012_x_at) / RFU MBOAT4 (11741988_at) / Fold change /veh MBOAT4 (11741988_at) / RFU 11764193_at / Fold change /veh 11764193_at / RFU TMEM53 (11763286_at) / Fold change /veh TMEM53 (11763286_at) / RFU MAGEB2 (11727129_at) / Fold change /veh MAGEB2 (11727129_at) / RFU TMEM200A (11744735_a_at) / Fold change /veh TMEM200A (11744735_a_at) / RFU CCDC152 (11751479_a_at) / Fold change /veh CCDC152 (11751479_a_at) / RFU FAM211A (11726209_a_at) / Fold change /veh FAM211A (11726209_a_at) / RFU RGS16 (11746705_a_at) / Fold change /veh RGS16 (11746705_a_at) / RFU VCAN (11755009_s_at) / Fold change /veh VCAN (11755009_s_at) / RFU RHOB (11743442_s_at) / Fold change /veh RHOB (11743442_s_at) / RFU RGS16 (11720943_a_at) / Fold change /veh RGS16 (11720943_a_at) / RFU RGS16 (11720944_at) / Fold change /veh RGS16 (11720944_at) / RFU, VPS4B / Fold change vs veh, VPS4B / RFU, CREB1 / Fold change vs veh, CREB1 / RFU, DNAJC13 / Fold change vs veh, DNAJC13 / RFU, GNAQ / Fold change vs veh, GNAQ / RFU, CDK5R1 / Fold change vs veh, CDK5R1 / RFU, ZRANB3 / Fold change vs veh, ZRANB3 / RFU, CUL4A / Fold change vs veh, CUL4A / RFU, CCNY / Fold change vs veh, CCNY / RFU, UFL1 / Fold change vs veh, UFL1 / RFU, COG3 / Fold change vs veh, COG3 / RFU, DIAPH2 / Fold change vs veh, DIAPH2 / RFU, SKA2 / Fold change vs veh, SKA2 / RFU, AFF3 / Fold change vs veh, AFF3 / RFU, LMF1 / Fold change vs veh, LMF1 / RFU, IPO11 / Fold change vs veh, IPO11 / RFU, DFFB / Fold change vs veh, DFFB / RFU, FOXP1 / Fold change vs veh, FOXP1 / RFU, CARD8 / Fold change vs veh, CARD8 / RFU, STRN3 / Fold change vs veh, STRN3 / RFU, ADK / Fold change vs veh, ADK / RFU, RASSF2 / Fold change vs veh, RASSF2 / RFU, WIPF1 / Fold change vs veh, WIPF1 / RFU, LARP1B / Fold change vs veh, LARP1B / RFU, RASA1 / Fold change vs veh, RASA1 / RFU, RB1 / Fold change vs veh, RB1 / RFU, PPFIA1 / Fold change vs veh, PPFIA1 / RFU, MAT2A / Fold change vs veh, MAT2A / RFU, CCT5 / Fold change vs veh, CCT5 / RFU, WDR92 / Fold change vs veh, WDR92 / RFU, CUX1 / Fold change vs veh, CUX1 / RFU, TTC7A / Fold change vs veh, TTC7A / RFU, TMEM135 / Fold change vs veh, TMEM135 / RFU, DEPTOR / Fold change vs veh, DEPTOR / RFU, CPM / Fold change vs veh, CPM / RFU, DNAJB6 / Fold change vs veh, DNAJB6 / RFU, CACNA2D3 / Fold change vs veh, CACNA2D3 / RFU, DTX4 / Fold change vs veh, DTX4 / RFU, TFCP2 / Fold change vs veh, TFCP2 / RFU, GMCL1 /// GMCL1P1 / Fold change vs veh, GMCL1 /// GMCL1P1 / RFU, AEBP2 / Fold change vs veh, AEBP2 / RFU, SNHG1 /// SNORD22 /// SNORD25 /// SNORD26 /// SNORD27 /// SNORD28 /// SNORD29 /// SNORD31 / Fold change vs veh, SNHG1 /// SNORD22 /// SNORD25 /// SNORD26 /// SNORD27 /// SNORD28 /// SNORD29 /// SNORD31 / Fold change (Aza/veh), C12orf56 (ProbeSet 11735607_a_at) / Fold change (ACY-1035/veh), C12orf56 (ProbeSet 11735607_a_at) / Fold change (Aza/veh), FGFR1OP (ProbeSet 11751329_s_at) / Fold change (ACY-1035/veh), FGFR1OP (ProbeSet 11751329_s_at) / Fold change (Aza/veh), VPS36 (ProbeSet 11739960_a_at) / Fold change (ACY-1035/veh), VPS36 (ProbeSet 11739960_a_at) / RFU SYPL1 (11715823_x_at) / Fold change /veh SYPL1 (11715823_x_at) / RFU IGFBP7 (11715501_s_at) / Fold change /veh IGFBP7 (11715501_s_at) / RFU REEP3 (11722064_at) / Fold change /veh REEP3 (11722064_at) / RFU IGLL1 (11728026_x_at) / Fold change /veh IGLL1 (11728026_x_at): dose or concentration left out as unconfirmed
Details: ProbeSet 11725100_s_at; LIST B

## Nc1ccc(-c2cccs2)cc1NC(=O)c1ccc2c(c1)cc(C1CC1)n2CCN1CCOCC1 [ACY-1035]
  Fold change vs veh, ESF1: 0.88
